This is an account of results in patent EP0044495B1, “16-Beta ethyl steroids, compositions containing them and process for their preparation” (SCHERING AKTIENGESELLSCHAFT, priority 1980, dated 1982).

The assay concerns Samenblasen- und Prostatagewichts von Ratten. The experiment in a line: Antiandrogenic effect: inhibition of the testosterone propionate-induced increase in seminal vesicle and prostate weight of rats after subcutaneous administration. To be noted: for Testosteronpropionat-Hemmung Prostata / Testosteronpropionat-Hemmung Samenblase: rats, subcutaneous administration, Dosis 0,3 mg/Tag per animal; for Testosteronpropionat-Hemmung Prostata: prostate weight; for Testosteronpropionat-Hemmung Samenblase: seminal vesicle weight. It counts as in vivo. The source says: Die neuen Verbindungen der allgemeinen Formel 1 besitzen starke antiandrogene Wirkung.

For `CC[C@H]1C[C@H]2[C@@H]3CCC4=CC(=O)CCC4=C3CC[C@]2(C)[C@H]1O` [A, 16ß-Ethyl-17ß-hydroxy-4,9(10)-estradien-3-on], the “Testosteronpropionat-Hemmung Prostata” value came out at 18% and the “Testosteronpropionat-Hemmung Samenblase” value worked out at 34%. Besides, where the note is “result in words, comparison of A with B at 0,3 mg pro Tier und Tag, or general statement”, the “antiandrogene Wirkung” value is recorded as “signifikant wirksamer”.

For the compound `CC[C@H]1C[C@H]2[C@@H]3CCC4=CC(=O)CC[C@@H]4[C@H]3CC[C@]2(C)[C@H]1O` [B, 16ß-Ethyl-17ß-hydroxy-4-estren-3-on, reference compound], the “Testosteronpropionat-Hemmung Prostata” value is on record as 0% and the “Testosteronpropionat-Hemmung Samenblase” value is on record as 13%.
